Assay results: publication PMC9000413, “Isolation and Structural Elucidation of Compounds from Pleiocarpa bicarpellata and Their In Vitro Antiprotozoal Activity” (Molecules, 2022)
Read-outs that look alike come from different tables or passages of the source.

Tests used:
[1] = system: P. falciparum; assay: In vitro antiplasmodial assay (P. falciparum NF54, intraerythrocytic); settings: for IC50: Plasmodium falciparum, NF54, read-out: IC50 P. falciparum; for selectivity ratio: rat
Method: The in vitro activity was assessed on T. b. rhodesiense (STIB900, bloodstream forms), T. cruzi (Tulahuen C2C4, intracellular amastigotes), L. donovani (MHOM-ET-67/L82, axenically grown amastigotes), P. falciparum (NF54, intraerythrocytic), and L6 cells (rat skeletal myoblasts) as previously described. Results are expressed in µg/mL for extracts and in µM for pure compounds.

[2] = system: P. falciparum; parameters: method as in PMID 11378289; settings: alkaloids from the methanol root extract of P. mutica; cited from earlier work
[3] = system: L. donovani; assay: In vitro antileishmanial assay (L. donovani MHOM-ET-67/L82, axenically grown amastigotes); format: cell-based, Leishmania donovani; settings: for IC50: Leishmania donovani, pure compounds and reference drug, mean of two independent assays, axenically grown amastigotes
Method: (§1) The in vitro activity was assessed on T. b. rhodesiense (STIB900, bloodstream forms), T. cruzi (Tulahuen C2C4, intracellular amastigotes), L. donovani (MHOM-ET-67/L82, axenically grown amastigotes), P. falciparum (NF54, intraerythrocytic), and L6 cells (rat skeletal myoblasts) as previously described [42].

[4] = Cytotoxicity against rat skeletal myoblast L6 cells; format: cell-based
Method: as §1

[5] = system: P. berghei; parameters: method as in PMID 11378289; settings: in vivo mouse model, daily doses of 25 mg/kg/day, compared to untreated control mice; cited from earlier work
[6] = system: T. cruzi; parameters: method as in PMID 25233577; settings: cited from earlier work
[7] = system: L. infantum; parameters: method as in PMID 25233577; settings: cited from earlier work
[8] = system: T. b. rhodesiense; assay: In vitro antitrypanosomal assay (T. b. rhodesiense STIB900, bloodstream forms); format: cell-based; settings: Trypanosoma brucei
Method: as §1

[9] = system: T. cruzi; assay: In vitro antitrypanosomal assay (T. cruzi Tulahuen C2C4, intracellular amastigotes); format: cell-based; settings: Trypanosoma cruzi
Method: as §1

[10] = system: T. cruzi; parameters: method as in PMID 26755152; settings: previous study; cited from earlier work
[11] = Selectivity index (SI) = IC50 cytotoxicity/IC50 against parasite, L6 cells vs P. falciparum

SMILES | IC50 [1] | IC50 [2] | IC50 [3] | IC50 ([4]; rat) | further results
CCN(CC)CCCC(C)Nc1ccnc2cc(Cl)ccc12 (stereo not shown) [Chloroquine, reference compound] | 0.006 µM | – | – | – | –
COC(=O)[C@@H]1CC23CCCN4CC[C@@]5(c6ccccc6NC15CC2)[C@@H]43 (stereo partly shown) [Compound 2, kopsinine] | – | > 200 µM | – | – | –
CC=C1C[N+]2(C)C3CC1C(CO)(C(=O)OC)C2Cc1c3[nH]c2ccccc12 (stereo not shown) [Compound 6, macusine A] | 26.9 µM | – | > 50 µM | – | selectivity ratio [1, 11]: 10.1; IC50 ([4]; L6 cells (rat skeletal myoblasts), pure compounds and reference drug, rat skeletal myoblast L6 cells, mean of two independent assays, read-out: IC50 Cytotoxicity): 272 µM
COC(=O)[C@@H]1CC23CCCN4CC[C@@]5(c6ccccc6N(C(=O)OC)C15CC2)[C@@H]43 (stereo partly shown) [Compound 11, pleiocarpine] | 26.6 µM | > 200 µM | > 50 µM | 156 µM | selectivity ratio [1]: 5.8; reduced parasitemia [5]: 28.5%
CC[C@H]1[C@@H]2CCN3CC[C@@]4(C(=C2C(=O)OC)Nc2ccccc24)[C@@H]13 [Compound 13, tubotaiwine] | 8.5 µM | – | > 50 µM | 197 µM | Selectivity index (SI) = IC50 cytotoxicity/IC50 against parasite ([1]; L6 cells vs P. falciparum): 23.2; selectivity ratio [1, 11]: 23.4; activity against T. cruzi [6]: no activity; IC50 [7]: 17.3 µM
CCC1C2CCN3CCC4(C(=C2C(=O)OC)Nc2ccccc24)C13 [Compound 15, methyl (7S,15R,20R,21S)-20-ethyl-5,6,14,15,21-hexahydro-15,21-ethanopyrrolo[5,21-d]carbazole-16-carboxylate-methane] | > 50 µM | – | > 50 µM | – | IC50 [8]: > 50 µM; IC50 [9]: > 50 µM
C=C[C@H]1[C@H](O[C@@H]2O[C@H](CO)[C@@H](O)[C@H](O)[C@H]2O)OC=C(C(=O)OC)[C@H]1CC(=O)O [Compound 16, secoxyloganin] | > 50 µM | – | 25.3 µM | 294 µM | selectivity ratio ([3]; rat, L6 cells vs L. donovani, read-out: Selectivity index (SI) = IC50 cytotoxicity/IC50 against parasite): 11.6; IC50 [10]: > 150 µM
CCCCCCCCCCCCCCCCOP(=O)([O-])OCC[N+](C)(C)C [Miltefosine, reference compound] | – | – | 0.554 µM | – | –
COc1cc([C@@H]2c3cc4c(cc3[C@H](O)[C@H]3COC(=O)[C@H]23)OCO4)cc(OC)c1OC [Podophyllotoxin, reference compound] | – | – | – | – | IC50 ([4]; pure compounds and reference drug, rat skeletal myoblast L6 cells, mean of two independent assays, read-out: IC50 Cytotoxicity): 0.027 µM
C/C=C1/CN2CC[C@@]34CN5c6c(cccc6[C@@]67CCN8CCC[C@@]9(CC[C@@]56[C@@H]9C)[C@H]87)[C@@]35[C@@H]2C[C@@H]1[C@@H](C(=O)OC)N5c1ccccc14 [pleiomutinine, reference compound] | – | 5 µM | – | – | –
